Molecules are shown by their SMILES. Converted amounts (≈) assume the structure as drawn. Where two headings read alike, the source gives them in different places.

In data set [1] the test system is Staphylococcus aureus CJ145. Briefly: Susceptibility of β-lactamase producing bacterial strains to β-lactam antibiotics in 1:1 combination (Table II). It counts as cell-based.
Data set [2] concerns Escherischia coli HA58 (RTEM). The data set is described as follows: organism not typed. It counts as cell-based.
In data set [3] the test system is Klebsiella pneumoniae HE7. Briefly: Susceptibility of β-lactamase producing bacterial strains to β-lactam antibiotics in 1:1 combination (Table II). It counts as cell-based.
For data set [4], the system named is Staphylococcus aureus CJ9. Described as above. In kind it is cell-based.
Data set [5] concerns Proteus mirabilis HJ28. Described as above. In kind it is cell-based.
Data set [6] relates to β-lactamases. The settings on record: well known; cited from earlier work.
For data set [7] the following is noted: as such or as hydrochloride; cited from earlier work.
Setting [8] is: serial dilution in agar medium, inoculum 10^5 CFU, alone or in 1:1 combination (value of each partner), read-out: IC50.
The mark [9] stands for this setting: serial dilution in agar medium, inoculum 10^4 CFU, alone or in 1:1 combination (value of each partner), read-out: IC50.

Turning to `CC1(C)S[C@@H]2[C@H](NC(=O)[C@H](N)c3ccccc3)C(=O)N2[C@H]1C(=O)O` [Ampicillin], the values for the half-maximal inhibitory concentration (IC50) in data set [1] (setting [8]) and in data set [3] (setting [9]) were 1.6 µg/mL and above 50 µg/mL, respectively. Also, the minimum inhibitory concentration (MIC) in data set [2] was above 100 µg/mL; in data set [5] (setting [9]) it was above 50 µg/mL. Further, the MIC in data set [4] (setting [8]) amounted to 10 µg/mL.

As for `CC1(C)S[C@@H]2[C@H](NC(=O)Cc3ccccc3)C(=O)N2[C@H]1C(=O)O` [Benzylpenicillin], the IC50 in data set [1] is 10 µg/mL; in data set [3], above 100 µg/mL. The minimum inhibitory concentration (MIC) in data set [2] and in data set [5] was above 100 µg/mL throughout. In addition, the “sensitivity to β-lactamases” value in data set [6] is reported as “very sensitive to β-lactamases”. In data set [4], the MIC was above 100 µg/mL.

With `CC1(C)S[C@@H]2[C@H](/N=C/N3CCCCCC3)C(=O)N2[C@H]1C(=O)O` [Mecillinam], the IC50 is above 50 µg/mL in data set [1] (setting [8]) and above 25 µg/mL in data set [3] (setting [9]). The minimum inhibitory concentration (MIC) came out at 1.3 µg/mL (≈ 3.99 µM) in data set [2] and 6.3 µg/mL in data set [5] (setting [9]). The MIC in data set [4] (setting [8]) was above 50 µg/mL.

For the compound `CCN(CC)CCOC(=O)[C@@H]1N2C(=O)[C@@H](NC(=O)Cc3ccccc3)[C@H]2SC1(C)C` [Penethamate], in data set [7], the “concentration of benzylpenicillin in the udder” value is “rapid and high concentration of benzylpenicillin in the udder”; the “effect in the treatment of mastitis” value is “very effective in the treatment of mastitis”.

One may read the IC50 as the concentration needed to halve the response being measured.

Values taken from patent US4594246A, “Pharmaceutically-acceptable amine salts of 6-β-halopenicillanic acids” (Leo Pharmaceutical Products, priority 1979, dated 1986).
